US10472341B2, “Bicyclic tetrahydrothiazepine derivatives useful for the treatment of neoplastic and/or infectious diseases” (APEIRON BIOLOGICS AG, priority 2015, dated 2019)
Read-outs that look alike come from different tables or passages of the source.

Assays:
[1] = system: aCD3/aCD28-stimulated human CD4+-T-cells; assay: IL-2 production and activation markers in aCD3/aCD28 stimulated isolated human CD4+-T-cells; type: cell-based; conditions: IL-2 production at 3 μM compound
Procedure: • Buffy coat content was transferred to sterile plastic bottle and filled up to 480 ml with PBS, and distributed equally to 16×50 ml tubes (30 ml/tube) • Underlayed with ˜11 ml Lymphoprep and centrifuged 20 min (2200 rpm) • The interphase containing lymphocytes was taken off with transfer pipette, cells were washed twice with PBS and pooled to one tube to determine cell count (Coulter Diff ACT) Isolation of Immune Cell Subfractions from PBMCs by MACS • PBMCs were resuspended in MACS buffer (80 μl MACS-buffer/10^7 cells) and cells were isolated with Auto-MACS device using respective kits following manufacturer's recommendations TCR Stimulation and Measurement of T Cell Activation
Isolated T cells were plated in Xvivo medium at 1.5*10 ^5 cells per in 96 well culture plates and TCR-stimulated with anti-CD3/28 mAbs in the presence of compound as indicated. Cytokine production was determined at 24 h or 48 h following TCR stimulation in cell culture supernatants using commercially available ELISA kits (BD and eBioscience) as recommended by the manufacturer. T cell proliferation and CD25 expression (CD25-PC5 reagent purchased from Beckman Coulter) was determined by flow cytometry (Beckman-Coulter FC500) and analysed with Kaluza Software. For measurement of CD69 expression, isolated CD4 and CD8 T cells were plated in Xvivo medium at […] per in 96 well culture plates and TCR-stimulated with anti-CD3/28 mAbs in the presence of compound. CD69 expression was determined at 24 h following TCR stimulation by flow cytometry (CD4eF450, CD8APCeF780 and CD69-PC7 reagent purchased from eBioscience) and analysed with Kaluza Software.
Buffy coats were obtained from Austrian Red Cross, diluted 3 fold with PBS and layered onto an isotonic Ficoll separating solution d=1.077 g/m in 50 ml centrifuge tubes. The tubes were centrifuged at 914 g for 25 min at room temperature with the brakes off. The PBMC layer was removed and washed twice with ice-cold PBS. CD4 T cells were isolated using CD4 microbeads (Milteny) and the AutoMACS device following manufacturer's instructions.
Compound examples of the present invention were classified according to the following activity criteria and are listed in Table 4a: • Activity Class A: IL-2 production at 3 μM compound concentration >10 ng/mL • Activity Class B: IL-2 production at 3 μM compound concentration between 2-10 ng/mL • Activity Class C: IL-2 production at 3 μM compound concentration between 2-fold increase as compared to mean IL-2 production of stimulated cells in the absence of compounds and <2 ng/mL

[2] = system: aCD3/aCD28-stimulated human PBMCs; assay: Cytokine production in aCD3/aCD28 stimulated human PBMCs; type: cell-based; conditions: PBMC, 18 h
Procedure: In order to determine the immune modulatory effect of compounds of compounds of the present invention in human PBMCs, compounds were assessed in the following assay set-up:
Buffy coats were obtained from a local hospital, diluted 3 fold with PBS and layered onto an isotonic Ficoll separating solution d=1.077 g/mL in 50 mL centrifuge tubes. The tubes were centrifuged at 914 g for 25 min at room temperature with the brakes off. The PBMC layer was removed and washed twice with ice-cold PBS. Erythrocytes were lysed by addition of ddH2O and cells were resuspended in X-Vivo15 (Lonza).
1e6 cells/mL were stimulated with soluble anti CD3/CD28 antibodies (1 μg/mL both, clones OKT3 and 28.2) in the presence of described compounds. Cells were incubated for 18 h at 37° C., 5% CO2. Assay plates were centrifuged at 400 g for 5 min and supernatants harvested. Cytokine concentration in tissue culture supernatants were determined with MSD or HTRF kits (MSD and Cisbio), according to manufacturer's instructions.

[3] = enhancement of IFN-γ production, read-out: Activity Class IFN-γ
[4] = enhancement of IL-2 production, read-out: Activity Class IL-2

Row | SMILES | Activity Class CD4+ [1] | EC50 [2, 3] [nM] | EC50 [2, 4] [nM]
1 | CCCCNC(=O)c1ccc2c(c1)N(Cc1ccc(C(C)(C)C)cc1)C(=O)[C@@H](N)CS2.Cl [Example 2, (3R)-3-amino-N-butyl-5-[(4-tert-butylphenyl)methyl]-4-oxo-2,3,4,5-tetrahydro-1,5-benzothiazepine-7-carboxamide hydrochloride] | B (IL-2 production at 3 μM compound concentration between 2-10 ng/mL) | < 1580 | 1580 to 5010
2 | CCCCNC(=O)c1ccc2c(c1)N(Cc1ccc(OC(F)(F)F)cc1)C(=O)[C@@H](N)CS2.Cl [Example 3, (3R)-3-amino-N-butyl-4-oxo-5-{[4-(trifluoromethoxy)phenyl]methyl}-2,3,4,5-tetrahydro-1,5-benzothiazepine-7-carboxamide hydrochloride] | B (IL-2 production at 3 μM compound concentration between 2-10 ng/mL) | 1580 to 5010 | 1580 to 5010
3 | CC(C)NC(=O)c1ccc2c(c1)N(Cc1ccc(C(C)(C)C)cc1)C(=O)[C@@H](N)CS2.Cl [Example 4, (3R)-3-amino-5-[(4-tert-butylphenyl)methyl]-4-oxo-N-(propan-2-yl)-2,3,4,5-tetrahydro-1,5-benzothiazepine-7-carboxamide hydrochloride] | C (IL-2 production at 3 μM compound concentration between 2-fold increase as compared to mean IL-2 production of stimulated cells in the absence of compounds and <2 ng/mL) | > 5010 | 1580 to 5010
4 | CCCCNC(=O)c1cc2c(cc1F)SC[C@H](N)C(=O)N2Cc1ccc(OC(F)(F)F)cc1.Cl [Example 5, (3R)-3-amino-N-butyl-8-fluoro-4-oxo-5-{[4-(trifluoromethoxy)phenyl]methyl}-2,3,4,5-tetrahydro-1,5-benzothiazepine-7-carboxamide hydrochloride] | B (IL-2 production at 3 μM compound concentration between 2-10 ng/mL) | 1580 to 5010 | > 5010
5 | Cl.N[C@H]1CSc2ccc(C(=O)NCc3ccccc3)cc2N(Cc2ccc(OC(F)(F)F)cc2)C1=O [Example 6, (3R)-3-amino-N-benzyl-4-oxo-5-{[4-(trifluoromethoxy)phenyl]methyl}-2,3,4,5-tetrahydro-1,5-benzothiazepine-7-carboxamide hydrochloride] | B (IL-2 production at 3 μM compound concentration between 2-10 ng/mL) | < 1580 | 1580 to 5010
6 | COc1ccc(CNC(=O)c2ccc3c(c2)N(Cc2ccc(OC(F)(F)F)cc2)C(=O)[C@@H](N)CS3)cc1.Cl [Example 7, (3R)-3-amino-N-[(4-methoxyphenyl)methyl]-4-oxo-5-{[4-(trifluoromethoxy)-phenyl]methyl}-2,3,4,5-tetrahydro-1,5-benzothiazepine-7-carboxamide hydrochloride] | B (IL-2 production at 3 μM compound concentration between 2-10 ng/mL) | < 1580 | 1580 to 5010
7 | CC(C)CONC(=O)c1ccc2c(c1)N(Cc1ccc(Cl)cc1)C(=O)[C@@H](N)CS2.Cl [Example 62, (3R)-3-amino-5-[(4-chlorophenyl)methyl]-N-(2-methylpropoxy)-4-oxo-2,3,4,5-tetrahydro-1,5-benzothiazepine-7-carboxamide hydrochloride] | C (IL-2 production at 3 μM compound concentration between 2-fold increase as compared to mean IL-2 production of stimulated cells in the absence of compounds and <2 ng/mL) | – | –
8 | Cl.N[C@H]1CS(=O)(=O)c2cc(F)c(C(=O)NOc3ccccc3)cc2N(Cc2ccc(Cl)cc2)C1=O [Example 76, (3R)-3-amino-5-[(4-chlorophenyl)methyl]-8-fluoro-1,1,4-trioxo-N-phenoxy-2,3,4,5-tetrahydro-1λ^6,5-benzothiazepine-7-carboxamide hydrochloride] | C (IL-2 production at 3 μM compound concentration between 2-fold increase as compared to mean IL-2 production of stimulated cells in the absence of compounds and <2 ng/mL) | – | –
9 | CC(C)CONC(=O)c1ccc2c(c1)N(Cc1ccc(Cl)cc1)C(=O)[C@@H](N)CS2(=O)=O.Cl [Example 81, (3R)-3-amino-5-[(4-chlorophenyl)methyl]-N-(2-methylpropoxy)-1,1,4-trioxo-2,3,4,5-tetrahydro-1λ^6,5-benzothiazepine-7-carboxamide hydrochloride] | C (IL-2 production at 3 μM compound concentration between 2-fold increase as compared to mean IL-2 production of stimulated cells in the absence of compounds and <2 ng/mL) | – | –
10 | CCCONC(=O)c1ccc2c(c1)N(Cc1ccc(Cl)cc1)C(=O)[C@@H](N)CS2(=O)=O.Cl [Example 82, (3R)-3-amino-5-[(4-chlorophenyl)methyl]-1,1,4-trioxo-N-propoxy-2,3,4,5-tetrahydro-1λ^6,5-benzothiazepine-7-carboxamide hydrochloride] | C (IL-2 production at 3 μM compound concentration between 2-fold increase as compared to mean IL-2 production of stimulated cells in the absence of compounds and <2 ng/mL) | – | –
11 | Cl.N[C@H]1CS(=O)(=O)c2ccc(C(=O)NOC3CCCCC3)cc2N(Cc2ccc(Cl)cc2)C1=O [Example 90, (3R)-3-amino-5-[(4-chlorophenyl)methyl]-N-(cyclohexyloxy)-1,1,4-trioxo-2,3,4,5-tetrahydro-1λ^6,5-benzothiazepine-7-carboxamide hydrochloride] | A (IL-2 production at 3 μM compound concentration >10 ng/mL) | – | –
12 | Cl.N[C@H]1CS(=O)(=O)c2ccc(C(=O)NOCC3CCCCC3)cc2N(Cc2ccc(Cl)cc2)C1=O [Example 91, (3R)-3-amino-5-[(4-chlorophenyl)methyl]-N-(cyclohexylmethoxy)-1,1,4-trioxo-2,3,4,5-tetrahydro-1λ^6,5-benzothiazepine-7-carboxamide hydrochloride] | B (IL-2 production at 3 μM compound concentration between 2-10 ng/mL) | – | –
13 | CC(C)(C)ONC(=O)c1ccc2c(c1)N(Cc1ccc(Cl)cc1)C(=O)[C@@H](N)CS2(=O)=O.Cl [Example 97, (3R)-3-amino-N-(tert-butoxy)-5-[(4-chlorophenyl)methyl]-1,1,4-trioxo-2,3,4,5-tetrahydro-1λ^6,5-benzothiazepine-7-carboxamide hydrochloride] | C (IL-2 production at 3 μM compound concentration between 2-fold increase as compared to mean IL-2 production of stimulated cells in the absence of compounds and <2 ng/mL) | – | –
14 | CCCCNC(=O)c1cc2c(cc1F)SC[C@H](N)C(=O)N2Cc1ccc2ccccc2n1.Cl.Cl [Example 112, (3R)-3-amino-N-butyl-8-fluoro-4-oxo-5-(quinolin-2-ylmethyl)-2,3,4,5-tetrahydro-1,5-benzothiazepine-7-carboxamide dihydrochloride] | C (IL-2 production at 3 μM compound concentration between 2-fold increase as compared to mean IL-2 production of stimulated cells in the absence of compounds and <2 ng/mL) | – | –
15 | COc1ccc(CNC(=O)c2cc3c(cc2F)SC[C@H](NCCCCCNC(=O)OC(C)(C)C)C(=O)N3Cc2ccc(Cl)cc2)cc1 [Example 115, tert-butyl N-(5-{[(3R)-5-[(4-chlorophenyl)methyl]-8-fluoro-7-{[(4-methoxyphenyl)methyl]carbamoyl}-4-oxo-2,3,4,5-tetrahydro-1,5-benzothiazepin-3-yl]amino}pentyl)carbamate] | C (IL-2 production at 3 μM compound concentration between 2-fold increase as compared to mean IL-2 production of stimulated cells in the absence of compounds and <2 ng/mL) | – | –
